Experimental data: ChEMBL document CHEMBL3044931, “Synthesis and Antimuscarinic Activity of Derivatives of 2-Substituted-1,3-Dioxolanes” (Med Chem Res, 2005)

Organism: Cavia porcellus
Assay: Selectivity ratio of pKb for Cavia porcellus (guinea pig) ileum M3 receptor to pKb for Cavia porcellus (guinea pig) left atria M2 receptor
Type: tissue-based
Conditions: Atrium/Ileum

C[C@H]1OC(c2ccccc2)(c2ccccc2)O[C@@H]1CN(C)C (relative stereo) and C[C@@H]1OC(c2ccccc2)(c2ccccc2)O[C@@H]1CN(C)C (relative stereo) are within 0.2 log units of each other in Ratio pKb: 1 for the first, 0.9 for the second.

Going from CN(C)CC1COC(c2ccccc2)(c2ccccc2)O1 (configuration not stated) to CN(C)C[C@@H]1CO[C@@H](C(c2ccccc2)c2ccccc2)O1, the Ratio pKb rises from 0.4 to 1.

CN(C)C[C@@H]1CO[C@H](C(c2ccccc2)c2ccccc2)O1 (relative stereo) showed a Ratio pKb of 0.3.

System: not listed separately
Assay: Selectivity ratio of pKb for rabbit vas deferens M1 receptor to pKb for guinea pig left atria M2 receptor
Conditions: not given

Going from C[C@H]1OC(c2ccccc2)(c2ccccc2)O[C@@H]1CN(C)C (relative stereo) to C[C@@H]1OC(c2ccccc2)(c2ccccc2)O[C@@H]1CN(C)C (relative stereo), the Ratio pKb falls from 1 to 0.7.

First: CN(C)CC1COC(c2ccccc2)(c2ccccc2)O1 (configuration not stated)
Second: CN(C)C[C@@H]1CO[C@@H](C(c2ccccc2)c2ccccc2)O1
The Ratio pKb of the first is lower: 1 for the first, 2 for the second.

For CN(C)C[C@@H]1CO[C@H](C(c2ccccc2)c2ccccc2)O1 (relative stereo), the Ratio pKb was 5.

System: not listed separately
Assay: Antagonist activity at Oryctolagus cuniculus (rabbit) vas deferens M1 receptor after 1 hr
Conditions: read-out: pA2 (converted)

Going from CN(C)[C@H]1CO[C@H](C(c2ccccc2)c2ccccc2)OC1 to CN(C)[C@H]1CO[C@@H](C(c2ccccc2)c2ccccc2)OC1, the Kb falls from 389 nM to 6.17 nM (63-fold).

Organism: Oryctolagus cuniculus
Assay: Binding affinity to Oryctolagus cuniculus (rabbit) vas deferens M1 receptor after 1 hr
Conditions: not given

Compared with C[C@H]1OC(c2ccccc2)(c2ccccc2)O[C@@H]1CN(C)C (relative stereo), C[C@@H]1OC(c2ccccc2)(c2ccccc2)O[C@@H]1CN(C)C (relative stereo) is lower in pKb: 6.87 for the first, 6.35 for the second.

Compared with CN(C)CC1COC(c2ccccc2)(c2ccccc2)O1 (configuration not stated), CN(C)C[C@@H]1CO[C@@H](C(c2ccccc2)c2ccccc2)O1 is lower in pKb: 7.15 for the first, 6.9 for the second.

CN(C)C[C@@H]1CO[C@H](C(c2ccccc2)c2ccccc2)O1 (relative stereo) gave a pKb of 7.31.

System: not listed separately
Assay: Selectivity ratio of pKb for rabbit vas deferens M1 receptor to pKb for guinea pig ileum M3 receptor
Type: tissue-based
Conditions: not given

Going from C[C@H]1OC(c2ccccc2)(c2ccccc2)O[C@@H]1CN(C)C (relative stereo) to C[C@@H]1OC(c2ccccc2)(c2ccccc2)O[C@@H]1CN(C)C (relative stereo), the Ratio pKb falls from 1 to 0.8.

Compared with CN(C)CC1COC(c2ccccc2)(c2ccccc2)O1 (configuration not stated), CN(C)C[C@@H]1CO[C@@H](C(c2ccccc2)c2ccccc2)O1 is lower in Ratio pKb: 3 for the first, 2 for the second.

For CN(C)C[C@@H]1CO[C@H](C(c2ccccc2)c2ccccc2)O1 (relative stereo), the Ratio pKb was 17.

Biological target: Muscarinic acetylcholine receptor M3 (Cavia porcellus) (UniProt Q8VH26)
Assay: Binding affinity to Cavia porcellus (guinea pig) ileum M3 receptor after 30 min
Type: tissue-based
Conditions: not given

Chain of Muscarinic acetylcholine receptor M3 (Cavia porcellus) (Q8VH26 1-587): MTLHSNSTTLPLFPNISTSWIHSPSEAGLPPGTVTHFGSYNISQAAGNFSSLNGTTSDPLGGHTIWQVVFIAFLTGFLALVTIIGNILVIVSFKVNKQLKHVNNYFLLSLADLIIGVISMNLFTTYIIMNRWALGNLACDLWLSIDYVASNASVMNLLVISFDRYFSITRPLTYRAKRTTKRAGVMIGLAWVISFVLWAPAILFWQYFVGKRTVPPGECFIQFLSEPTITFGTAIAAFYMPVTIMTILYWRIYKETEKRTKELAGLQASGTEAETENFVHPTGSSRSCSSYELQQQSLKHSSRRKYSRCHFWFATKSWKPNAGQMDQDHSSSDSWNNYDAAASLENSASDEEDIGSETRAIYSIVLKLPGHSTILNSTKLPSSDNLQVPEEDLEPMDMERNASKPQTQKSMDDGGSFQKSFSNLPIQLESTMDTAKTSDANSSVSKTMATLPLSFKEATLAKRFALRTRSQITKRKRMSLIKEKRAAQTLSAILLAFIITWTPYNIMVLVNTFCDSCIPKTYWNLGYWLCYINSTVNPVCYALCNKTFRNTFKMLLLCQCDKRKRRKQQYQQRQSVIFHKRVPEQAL

First: C[C@H]1OC(c2ccccc2)(c2ccccc2)O[C@@H]1CN(C)C (relative stereo)
Second: C[C@@H]1OC(c2ccccc2)(c2ccccc2)O[C@@H]1CN(C)C (relative stereo)
The pKb of the first is higher: 6.71 for the first, 6.44 for the second.

CN(C)CC1COC(c2ccccc2)(c2ccccc2)O1 (configuration not stated) and CN(C)C[C@@H]1CO[C@@H](C(c2ccccc2)c2ccccc2)O1 are within 0.2 log units of each other in pKb: 6.72 for the first, 6.67 for the second.

Compound CN(C)C[C@@H]1CO[C@H](C(c2ccccc2)c2ccccc2)O1 (relative stereo) has a pKb of 6.07.

Biological target: T1, Muscarinic receptor 2 (Cavia porcellus) (UniProt Q8VH27)
T1 sequence (whole entry): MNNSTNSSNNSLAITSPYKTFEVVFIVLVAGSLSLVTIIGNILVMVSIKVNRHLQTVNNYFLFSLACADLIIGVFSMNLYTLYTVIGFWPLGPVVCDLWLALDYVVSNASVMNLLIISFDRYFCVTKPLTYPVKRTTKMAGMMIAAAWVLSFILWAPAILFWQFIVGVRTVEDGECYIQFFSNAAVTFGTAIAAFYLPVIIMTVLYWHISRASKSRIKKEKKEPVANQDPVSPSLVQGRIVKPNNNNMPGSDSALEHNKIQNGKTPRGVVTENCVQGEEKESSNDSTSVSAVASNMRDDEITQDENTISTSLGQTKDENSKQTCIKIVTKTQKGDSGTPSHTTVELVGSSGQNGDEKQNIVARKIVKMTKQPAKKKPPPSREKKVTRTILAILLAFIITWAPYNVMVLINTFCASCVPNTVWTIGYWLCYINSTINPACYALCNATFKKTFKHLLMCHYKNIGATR
Assay: Binding affinity to Cavia porcellus (guinea pig) left atria M2 receptor after 2 hr
Conditions: not given

Compared with C[C@H]1OC(c2ccccc2)(c2ccccc2)O[C@@H]1CN(C)C (relative stereo), C[C@@H]1OC(c2ccccc2)(c2ccccc2)O[C@@H]1CN(C)C (relative stereo) is lower in pKb: 6.71 for the first, 6.48 for the second.

First: CN(C)CC1COC(c2ccccc2)(c2ccccc2)O1 (configuration not stated)
Second: CN(C)C[C@@H]1CO[C@@H](C(c2ccccc2)c2ccccc2)O1
The pKb of the first is higher: 7.11 for the first, 6.56 for the second.

Compound CN(C)C[C@@H]1CO[C@H](C(c2ccccc2)c2ccccc2)O1 (relative stereo) has a pKb of 6.62.
